{"source": "patent US20210139999A1", "about": "“PROGNOSTIC AND TREATMENT RESPONSE PREDICTIVE METHOD” (Cancer Research Technology Limited, priority 2018, published 2021)", "origin": "cited, not measured here", "tested_on": "renal cancer", "conditions": "81 patients with response data, single agent arm", "data": [{"substance": "Atezolizumab", "values": [{"measurement": "responders", "result": 25, "unit": "%"}]}]}
